Common to all, as to assay: biochemical
Common to all, as to set-up: DiscoverX kinase panel, active-site competition binding (KINOMEscan type), percent of control at one concentration
Conditions in all cases: competition binding, percent of control

The target of experiment [1] is T1, ABL1(T315I)-phosphorylated (Homo sapiens, UniProt P00519, T315I).
T1 construct: phosphorylated

The target of experiment [2] is HIPK1 (Homo sapiens, UniProt Q86Z02).
In experiment [3] the target is BRSK2 (Homo sapiens, UniProt Q8IWQ3).
Experiment [4] has as its target KIT(D816V) (Homo sapiens, UniProt P10721, D816V).
Experiment [5] addresses MYLK2 (Homo sapiens, UniProt Q9H1R3).
Experiment [6] concerns the target T2, ERK5 (Homo sapiens, UniProt Q13164).
T2 construct: gene MAPK7

Experiment [7] has as its target TSSK1B (Homo sapiens, UniProt Q9BXA7).
Experiment [8] addresses DDR1 (Homo sapiens, UniProt Q08345).
Experiment [9] concerns the target DAPK3 (Homo sapiens, UniProt O43293).
The target in experiment [10] is RET(V804L) (Homo sapiens, UniProt P07949, V804L).
The target of experiment [11] is FGFR3(G697C) (Homo sapiens, UniProt P22607, G697C).
The target of experiment [12] is KIT-autoinhibited (Homo sapiens, UniProt P10721).
Experiment [13] addresses T3, JAK1(JH2domain-pseudokinase) (Homo sapiens, UniProt P23458).
T3 construct: JH2domain-pseudokinase

The target of experiment [14] is EGFR(L747-E749del, A750P) (Homo sapiens, UniProt P00533, A750P/DEL747-749).
For experiment [15], the target named is HIPK4 (Homo sapiens, UniProt Q8NE63).
The target of experiment [16] is FGFR3 (Homo sapiens, UniProt P22607).
The target of experiment [17] is CDK8 (Homo sapiens, UniProt P49336).
For experiment [18], the target named is CDK9 (Homo sapiens, UniProt P50750).
In experiment [19] the target is AURKB (Homo sapiens, UniProt Q96GD4).
Experiment [20] has as its target STK39 (Homo sapiens, UniProt Q9UEW8).
In experiment [21] the target is CLK2 (Homo sapiens, UniProt P49760).

Among the data in publication PMC7206119, “RIP1 inhibition blocks inflammatory diseases but not tumor growth or metastases” (Cell Death and Differentiation, 2019) are remaining binding values, retold here.

Sequence of HIPK1 (Q86Z02 whole entry): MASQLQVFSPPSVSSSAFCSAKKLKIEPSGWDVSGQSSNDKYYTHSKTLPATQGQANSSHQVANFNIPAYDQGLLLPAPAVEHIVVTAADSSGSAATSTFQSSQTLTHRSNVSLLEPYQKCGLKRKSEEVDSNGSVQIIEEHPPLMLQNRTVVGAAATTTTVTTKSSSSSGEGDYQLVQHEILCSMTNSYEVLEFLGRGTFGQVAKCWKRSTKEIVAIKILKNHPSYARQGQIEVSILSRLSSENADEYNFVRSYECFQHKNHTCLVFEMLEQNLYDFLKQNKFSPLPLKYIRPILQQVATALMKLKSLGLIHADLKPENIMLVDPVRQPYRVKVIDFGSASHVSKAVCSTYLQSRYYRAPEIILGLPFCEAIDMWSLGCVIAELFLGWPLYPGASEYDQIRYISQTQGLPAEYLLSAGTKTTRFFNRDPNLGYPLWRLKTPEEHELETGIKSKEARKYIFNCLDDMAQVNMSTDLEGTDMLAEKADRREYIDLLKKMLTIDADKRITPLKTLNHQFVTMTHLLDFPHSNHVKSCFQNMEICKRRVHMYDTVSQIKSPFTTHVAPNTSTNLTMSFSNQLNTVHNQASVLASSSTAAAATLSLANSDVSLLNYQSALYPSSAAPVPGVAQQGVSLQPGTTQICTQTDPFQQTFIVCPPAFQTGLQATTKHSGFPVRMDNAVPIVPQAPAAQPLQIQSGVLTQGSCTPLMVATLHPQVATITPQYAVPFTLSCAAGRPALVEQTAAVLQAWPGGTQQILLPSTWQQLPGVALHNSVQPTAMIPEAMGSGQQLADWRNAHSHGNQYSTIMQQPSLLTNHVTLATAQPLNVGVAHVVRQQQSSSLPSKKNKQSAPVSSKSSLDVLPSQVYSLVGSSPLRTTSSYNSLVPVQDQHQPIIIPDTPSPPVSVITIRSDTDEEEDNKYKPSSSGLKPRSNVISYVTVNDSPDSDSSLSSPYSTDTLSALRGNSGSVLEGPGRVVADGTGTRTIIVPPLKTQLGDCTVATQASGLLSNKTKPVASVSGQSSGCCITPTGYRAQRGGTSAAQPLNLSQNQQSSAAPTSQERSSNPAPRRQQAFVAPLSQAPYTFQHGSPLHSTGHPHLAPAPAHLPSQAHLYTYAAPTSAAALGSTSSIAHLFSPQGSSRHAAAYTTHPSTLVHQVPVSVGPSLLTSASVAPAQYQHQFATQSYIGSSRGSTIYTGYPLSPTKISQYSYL
Sequence of DAPK3 (O43293 whole entry): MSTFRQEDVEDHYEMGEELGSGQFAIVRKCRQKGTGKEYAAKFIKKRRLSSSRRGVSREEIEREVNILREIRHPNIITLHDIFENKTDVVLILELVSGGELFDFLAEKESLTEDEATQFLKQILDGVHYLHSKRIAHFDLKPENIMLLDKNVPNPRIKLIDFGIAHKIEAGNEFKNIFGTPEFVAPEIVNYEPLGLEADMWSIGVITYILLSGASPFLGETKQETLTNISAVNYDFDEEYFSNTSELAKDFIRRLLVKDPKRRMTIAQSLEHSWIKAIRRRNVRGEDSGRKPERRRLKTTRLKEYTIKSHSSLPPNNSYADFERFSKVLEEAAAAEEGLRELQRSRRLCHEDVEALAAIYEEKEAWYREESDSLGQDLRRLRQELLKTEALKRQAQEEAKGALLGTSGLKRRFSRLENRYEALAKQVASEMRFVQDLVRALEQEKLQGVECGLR
Sequence of EGFR(L747-E749del, A750P) (P00533 with tags, fused parts or gaps DEL747-749/A750P): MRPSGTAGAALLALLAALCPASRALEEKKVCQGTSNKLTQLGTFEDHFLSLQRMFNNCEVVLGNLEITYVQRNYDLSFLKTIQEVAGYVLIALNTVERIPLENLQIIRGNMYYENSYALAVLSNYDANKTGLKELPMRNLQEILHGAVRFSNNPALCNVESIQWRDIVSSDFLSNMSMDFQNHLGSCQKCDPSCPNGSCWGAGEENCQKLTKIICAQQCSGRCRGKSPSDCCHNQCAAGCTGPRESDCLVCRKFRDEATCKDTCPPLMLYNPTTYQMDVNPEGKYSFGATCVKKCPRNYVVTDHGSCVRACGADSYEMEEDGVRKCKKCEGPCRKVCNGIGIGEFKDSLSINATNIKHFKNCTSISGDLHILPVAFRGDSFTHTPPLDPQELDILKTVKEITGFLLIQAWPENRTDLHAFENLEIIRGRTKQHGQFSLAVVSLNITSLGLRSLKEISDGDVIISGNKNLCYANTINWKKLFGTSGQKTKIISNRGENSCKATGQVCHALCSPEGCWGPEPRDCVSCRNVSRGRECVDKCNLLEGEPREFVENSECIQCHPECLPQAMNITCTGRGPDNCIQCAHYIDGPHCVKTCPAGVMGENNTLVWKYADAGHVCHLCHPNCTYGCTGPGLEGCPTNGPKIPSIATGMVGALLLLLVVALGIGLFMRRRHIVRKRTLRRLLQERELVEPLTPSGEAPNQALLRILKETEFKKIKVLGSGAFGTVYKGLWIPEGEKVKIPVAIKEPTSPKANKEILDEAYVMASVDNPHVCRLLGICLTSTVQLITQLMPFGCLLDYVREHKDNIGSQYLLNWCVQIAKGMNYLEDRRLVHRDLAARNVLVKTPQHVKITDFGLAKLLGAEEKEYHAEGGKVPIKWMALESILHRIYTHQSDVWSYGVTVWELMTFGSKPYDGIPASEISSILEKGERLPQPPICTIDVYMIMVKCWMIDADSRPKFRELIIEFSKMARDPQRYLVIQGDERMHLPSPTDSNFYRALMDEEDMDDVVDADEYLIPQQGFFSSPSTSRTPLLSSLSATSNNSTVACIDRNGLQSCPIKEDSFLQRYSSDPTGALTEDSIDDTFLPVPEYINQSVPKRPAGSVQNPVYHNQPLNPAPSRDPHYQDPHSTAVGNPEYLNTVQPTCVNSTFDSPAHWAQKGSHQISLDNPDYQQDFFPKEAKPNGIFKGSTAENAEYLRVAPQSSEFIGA
Sequence of BRSK2 (Q8IWQ3 whole entry): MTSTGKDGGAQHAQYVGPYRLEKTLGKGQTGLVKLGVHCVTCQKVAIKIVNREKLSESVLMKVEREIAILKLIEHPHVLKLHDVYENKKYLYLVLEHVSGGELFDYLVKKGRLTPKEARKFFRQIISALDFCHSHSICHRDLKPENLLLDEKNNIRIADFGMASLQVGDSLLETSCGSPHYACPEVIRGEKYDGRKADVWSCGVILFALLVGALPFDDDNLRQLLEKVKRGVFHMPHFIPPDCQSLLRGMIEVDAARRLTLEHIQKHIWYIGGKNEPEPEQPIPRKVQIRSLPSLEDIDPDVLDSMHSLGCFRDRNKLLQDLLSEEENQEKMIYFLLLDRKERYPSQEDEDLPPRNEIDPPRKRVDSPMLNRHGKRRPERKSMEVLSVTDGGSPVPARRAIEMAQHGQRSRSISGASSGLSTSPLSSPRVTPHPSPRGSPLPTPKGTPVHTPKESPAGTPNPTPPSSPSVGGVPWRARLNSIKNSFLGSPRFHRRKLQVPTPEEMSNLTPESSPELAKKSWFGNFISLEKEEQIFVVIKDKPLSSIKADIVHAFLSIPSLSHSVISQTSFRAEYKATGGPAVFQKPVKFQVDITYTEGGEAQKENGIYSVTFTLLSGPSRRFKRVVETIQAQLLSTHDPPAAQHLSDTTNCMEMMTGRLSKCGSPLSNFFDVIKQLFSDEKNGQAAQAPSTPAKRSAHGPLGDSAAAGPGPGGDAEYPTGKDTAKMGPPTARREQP
T2 sequence (Q13164 whole entry): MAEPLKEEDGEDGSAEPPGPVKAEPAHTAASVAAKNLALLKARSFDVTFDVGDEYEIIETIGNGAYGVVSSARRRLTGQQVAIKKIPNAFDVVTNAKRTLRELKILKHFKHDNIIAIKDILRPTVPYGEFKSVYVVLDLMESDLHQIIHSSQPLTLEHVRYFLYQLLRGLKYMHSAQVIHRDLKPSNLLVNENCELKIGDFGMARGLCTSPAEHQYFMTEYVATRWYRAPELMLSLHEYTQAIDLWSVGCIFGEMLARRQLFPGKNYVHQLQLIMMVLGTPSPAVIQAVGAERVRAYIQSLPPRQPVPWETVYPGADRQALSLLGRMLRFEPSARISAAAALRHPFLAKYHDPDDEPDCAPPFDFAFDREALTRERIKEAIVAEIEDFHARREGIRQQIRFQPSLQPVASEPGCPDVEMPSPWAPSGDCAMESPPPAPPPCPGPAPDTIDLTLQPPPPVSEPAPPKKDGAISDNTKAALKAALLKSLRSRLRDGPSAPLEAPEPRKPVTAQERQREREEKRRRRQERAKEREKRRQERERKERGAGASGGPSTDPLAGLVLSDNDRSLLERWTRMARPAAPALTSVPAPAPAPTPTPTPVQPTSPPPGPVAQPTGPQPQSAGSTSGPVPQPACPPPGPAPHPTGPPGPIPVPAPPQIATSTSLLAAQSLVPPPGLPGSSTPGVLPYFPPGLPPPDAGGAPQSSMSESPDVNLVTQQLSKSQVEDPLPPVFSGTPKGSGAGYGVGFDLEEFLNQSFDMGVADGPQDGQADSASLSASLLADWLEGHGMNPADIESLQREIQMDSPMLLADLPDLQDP
Sequence of MYLK2 (Q9H1R3 whole entry): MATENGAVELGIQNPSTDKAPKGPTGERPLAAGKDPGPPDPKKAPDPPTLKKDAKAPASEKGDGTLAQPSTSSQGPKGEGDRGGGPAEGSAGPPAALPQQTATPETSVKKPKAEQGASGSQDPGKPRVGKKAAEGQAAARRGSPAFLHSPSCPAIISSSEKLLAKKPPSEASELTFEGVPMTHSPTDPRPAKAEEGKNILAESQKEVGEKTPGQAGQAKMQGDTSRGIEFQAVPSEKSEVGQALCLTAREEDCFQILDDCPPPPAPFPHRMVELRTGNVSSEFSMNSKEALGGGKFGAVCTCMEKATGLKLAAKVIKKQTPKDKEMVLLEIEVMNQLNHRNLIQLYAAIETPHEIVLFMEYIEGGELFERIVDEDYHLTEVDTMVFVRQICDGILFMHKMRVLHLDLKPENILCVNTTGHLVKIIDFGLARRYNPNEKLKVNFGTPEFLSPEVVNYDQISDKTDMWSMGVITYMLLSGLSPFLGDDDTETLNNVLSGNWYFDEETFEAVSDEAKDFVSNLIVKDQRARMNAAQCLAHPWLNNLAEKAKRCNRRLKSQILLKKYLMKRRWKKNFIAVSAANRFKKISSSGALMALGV

Consider `COc1cc2c(cn1)N(C)C(=O)[C@@H](NC(=O)c1nc3n(n1)[C@H](c1ccccc1)CC3)CC2` [GNE684, (S)-N-((S)-7-methoxy-1-methyl-2-oxo-2,3,4,5-tetrahydro-1H-pyrido[3,4-b]azepin-3-yl)-5-phenyl-6,7-dihydro-5H-pyrrolo[1,2-b][1,2,4]triazole-2-carboxamide], for which the remaining binding at 10 µM in [1] came out at 81%; in experiment [2], 82%; in [3], 89%; in experiment [4], 100%; in [5], 83%; in experiment [6] it was 85%. Further, the remaining binding at 10 µM was found to be 95% in [7]; 100% in experiment [8]; 76% in experiment [9]; 91% in [10]; 88% in [11]; 93% in [12]. In addition, the remaining binding at 10 µM in experiment [13] was determined as 48%; in experiment [14], 85%; in experiment [15] it was 100%; in [16], 100%; in experiment [17], 97%; in experiment [18], 97%. In addition, the remaining binding at 10 µM is 84% in [19], 97% in experiment [20] and 74% in [21].
